# Laboratory results: ChEMBL document CHEMBL1142925, “Optimization and determination of the absolute configuration of a series of potent inhibitors of human papillomavirus type-11 E1-E2 protein-protein interaction: a combined medicinal chemistry, NMR and computational chemistry approach” (Bioorg Med Chem, 2007)
# The source made the active and inactive calls. No cut-off for these calls is given here.
# What was measured:
# [1] = target: Large T antigen (Simian virus 40) (UniProt P03070); experiment: Inhibition of binding of SV40 large T antigen to DNA by scintillation proximity assay; details: Betapolyomavirus macacae
# [2] = Inhibition of HPV11 E1-E2 protein-protein interaction by E1-E2-ori-complex formation assay
# Large T antigen (Simian virus 40), sequence (P03070 whole entry): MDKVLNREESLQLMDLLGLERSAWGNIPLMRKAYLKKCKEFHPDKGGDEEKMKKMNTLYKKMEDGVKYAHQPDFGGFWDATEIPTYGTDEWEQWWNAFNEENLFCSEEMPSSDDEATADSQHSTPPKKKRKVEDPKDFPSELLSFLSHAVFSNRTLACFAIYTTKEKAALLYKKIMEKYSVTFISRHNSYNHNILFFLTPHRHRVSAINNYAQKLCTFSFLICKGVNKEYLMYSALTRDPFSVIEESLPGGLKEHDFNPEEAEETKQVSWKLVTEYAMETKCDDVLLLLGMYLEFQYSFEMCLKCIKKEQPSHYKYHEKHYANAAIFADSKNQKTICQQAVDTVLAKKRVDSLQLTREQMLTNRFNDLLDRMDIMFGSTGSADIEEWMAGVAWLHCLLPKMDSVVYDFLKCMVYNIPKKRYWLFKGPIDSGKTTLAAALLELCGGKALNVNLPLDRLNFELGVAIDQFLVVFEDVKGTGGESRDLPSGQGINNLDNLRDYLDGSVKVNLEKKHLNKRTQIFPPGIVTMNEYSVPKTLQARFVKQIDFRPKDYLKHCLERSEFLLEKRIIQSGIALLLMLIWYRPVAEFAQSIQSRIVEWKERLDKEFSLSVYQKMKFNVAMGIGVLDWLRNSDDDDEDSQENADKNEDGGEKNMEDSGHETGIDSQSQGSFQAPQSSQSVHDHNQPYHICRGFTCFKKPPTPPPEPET
Structure (SMILES),Activity [1],IC50 [2] [nM]
C[C@@H](NC(=O)[C@H]1[C@H]2C(=O)O[C@]3(O)c4ccccc4C(=O)[C@]23O[C@H]1c1ccc(Cl)c(Cl)c1)c1ccccc1,inactive,6800
CC(=O)Nc1ccccc1NC(=O)[C@H]1[C@@H](C(=O)O)C2(O[C@H]1c1ccc(Cl)c(Cl)c1)C(=O)c1ccccc1C2=O,inactive,65000
O=C(NCc1ccccc1)[C@H]1[C@@H](C(=O)O)C2(O[C@H]1c1ccc(Cl)c(Cl)c1)C(=O)c1ccccc1C2=O,inactive,3500
O=C(Nc1ccc(N2CCOCC2)cc1)[C@H]1[C@@H](C(=O)O)C2(O[C@H]1c1ccc(Br)c(Br)c1)C(=O)c1ccccc1C2=O (stereo in doubt; 21) [listing 1 of 2 here],inactive,
C[C@@H](NC(=O)[C@H]1[C@@H](c2ccc(Cl)c(Cl)c2)O[C@@]23C(=O)c4ccccc4[C@]2(O)OC(=O)[C@@H]13)c1ccccc1,inactive,> 75000
O=C(Nc1ccc(N2CCOCC2)cc1)[C@H]1[C@@H](C(=O)O)C2(O[C@H]1c1ccc(Br)c(Br)c1)C(=O)c1ccccc1C2=O (stereo in doubt; 19) [listing 1 of 2 here],inactive,
O=C(Nc1ccc2c(c1)OCO2)[C@H]1[C@H]2C(=O)O[C@]3(O)c4ccccc4C(=O)[C@]23O[C@H]1c1ccc(Cl)cc1,inactive,6600
O=C(Nc1ccc2c(c1)OCO2)[C@H]1[C@@H](C(=O)O)C2(O[C@H]1c1ccc(Cl)cc1)C(=O)c1ccccc1C2=O,inactive,7800
O=C(Nc1ccc(N2CCOCC2)cc1)[C@H]1[C@@H](c2ccc(Br)c(Br)c2)OC2(C(=O)c3ccccc3C2=O)[C@H]1C(=O)O,inactive,15000

# More lines, in order of falling IC50 [2], values ahead:
Activity [1],IC50 [2] [nM],Structure (SMILES)
inactive,2100,CC(C)(C)NC(=O)[C@H]1[C@@H](C(=O)O)C2(O[C@H]1c1ccc(Cl)c(Cl)c1)C(=O)c1ccccc1C2=O
inactive,740,CC(=O)Nc1cccc(NC(=O)[C@H]2[C@@H](C(=O)O)C3(O[C@H]2c2ccc(Cl)c(Cl)c2)C(=O)c2ccccc2C3=O)c1
inactive,680,O=C(Nc1ccccc1)[C@H]1[C@@H](C(=O)O)C2(O[C@H]1c1ccc(Cl)c(Cl)c1)C(=O)c1ccccc1C2=O
inactive,460,Cc1cc2c(s1)C(=O)[C@@]1(O[C@@H](c3ccc(Br)c(Br)c3)[C@@H](C(=O)Nc3ccc(N4CCOCC4)cc3)[C@H]1C(=O)O)C2=O
inactive,440,CC(=O)Nc1ccc(NC(=O)[C@H]2[C@@H](C(=O)O)C3(O[C@H]2c2ccc(Cl)c(Cl)c2)C(=O)c2ccccc2C3=O)cc1
inactive,380,CC(=O)c1ccc(NC(=O)[C@H]2[C@@H](C(=O)O)C3(O[C@H]2c2ccc(Cl)c(Cl)c2)C(=O)c2ccccc2C3=O)cc1
inactive,350,O=C(Nc1ccc2c(c1)OCO2)[C@H]1[C@@H](C(=O)O)C2(O[C@H]1c1ccc(Cl)c(Cl)c1)C(=O)c1ccccc1C2=O
inactive,180,Cc1ccc2c(c1)C(=O)[C@@]1(O[C@@H](c3ccc(Cl)c(Cl)c3)[C@@H](C(=O)Nc3ccc(-c4csnn4)cc3)[C@H]1C(=O)O)C2=O
inactive,150,O=C(Nc1ccc(-c2csnn2)cc1)[C@H]1[C@@H](C(=O)O)C2(O[C@H]1c1ccc(Cl)c(Cl)c1)C(=O)c1ccccc1C2=O
inactive,88,O=C(Nc1ccc(N2CCOCC2)cc1)[C@H]1[C@@H](C(=O)O)C2(O[C@H]1c1ccc(Cl)c(Cl)c1)C(=O)c1ccccc1C2=O
,51,O=C(Nc1ccc(N2CCOCC2)cc1)[C@H]1[C@@H](C(=O)O)C2(O[C@H]1c1ccc(Br)c(Br)c1)C(=O)c1ccccc1C2=O (stereo in doubt; 19) [listing 2 of 2 here]
,28,O=C(Nc1ccc(N2CCOCC2)cc1)[C@H]1[C@@H](C(=O)O)C2(O[C@H]1c1ccc(Br)c(Br)c1)C(=O)c1ccccc1C2=O (stereo in doubt; 21) [listing 2 of 2 here]
inactive,6,Cc1cc2c(s1)C(=O)[C@]1(O[C@@H](c3ccc(Br)c(Br)c3)[C@@H](C(=O)Nc3ccc(N4CCOCC4)cc3)[C@H]1C(=O)O)C2=O
